The supplement of paper PMC11061612

Columns and labels:
Assay in all cases: combination Emax (second highest fraction inhibited in the dose matrix, 72 h); higher = more inhibition; extreme values may be limits of the assay
[1] = tested on: DMS-53 (Small Cell Lung Carcinoma)
Summary of the method: (§1)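 Bliss excess equals the observed combination effect minus the expected value EA + EB − EA·EB, where EA and EB are the effects of each agent alone. Combination Emax is the second-highest inhibition within the matrix. Inhibition was scaled from CellTiter-Glo 2.0 luminescence, with 0 set by vehicle wells and 1 by blank wells, after 72 hours of two-drug dosing of cells plated in 1536-well plates.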

[2] = tested on: ESO26 (Esophageal Adenocarcinoma)
Summary of the method: as §1

[3] = tested on: NCI-H441 (Lung Adenocarcinoma)
Summary of the method: as §1

[4] = tested on: MDA-MB-436 (Breast Carcinoma)
Summary of the method: as §1

[5] = tested on: MHH-ES-1 (Ewing's Sarcoma)
Summary of the method: as §1

[6] = tested on: NCI-H1703 (Squamous Cell Lung Carcinoma)
Summary of the method: as §1

[7] = tested on: Jurkat (T-Lymphoblastic Leukemia)
Summary of the method: as §1

[8] = tested on: EPLC-272H (Other Solid Carcinomas)
Summary of the method: as §1

[9] = tested on: HT55 (Colorectal Carcinoma)
Summary of the method: as §1

[10] = tested on: HCC1428 (Breast Carcinoma)
Summary of the method: as §1

[11] = tested on: CESS (Acute Myeloid Leukemia)
Summary of the method: as §1

[12] = tested on: 22RV1 (Prostate Carcinoma)
Summary of the method: as §1

[13] = tested on: KP-N-YN (Neuroblastoma)
Summary of the method: as §1

[14] = tested on: PEO1 (Ovarian Carcinoma)
Summary of the method: as §1

[15] = tested on: EW-7 (Ewing's Sarcoma)
Summary of the method: as §1

[16] = tested on: 5637 (Bladder Carcinoma)
Summary of the method: as §1

[17] = tested on: JIMT-1 (Breast Carcinoma)
Summary of the method: as §1

[18] = tested on: huH-1 (Hepatocellular Carcinoma)
Summary of the method: as §1

[19] = tested on: A101D (Melanoma)
Summary of the method: as §1

[20] = tested on: SK-HEP-1 (Hepatocellular Carcinoma)
Summary of the method: as §1

Row | SMILES | combination Emax [1] | combination Emax [2] | combination Emax [3] | combination Emax [4] | combination Emax [5] | combination Emax [6] | combination Emax [7] | combination Emax [8] | combination Emax [9] | combination Emax [10] | combination Emax [11] | combination Emax [12] | combination Emax [13] | combination Emax [14] | combination Emax [15] | combination Emax [16] | combination Emax [17] | combination Emax [18] | combination Emax [19] | combination Emax [20]
1 | COc1nnc2ccc(N3CCC(c4ccc(OCCN5CCN(C)C(=O)[C@H]5C)cc4)CC3)nn12 [AZD5153] + CCN(CCO)CCCOc1ccc2c(Nc3cc(CC(=O)Nc4cccc(F)c4)[nH]n3)ncnc2c1 [AZD2811] (first compound max 1 µM, 7x7, partner max 1 µM) | 0.593 | 0.752 | 0.381 | 0.287 | 0.762 | 0.721 | 0.745 | 0.748 | 0.619 | 0.701 | 0.648 | 0.522 | 0.616 | 0.435 | 0.444 | 0.68 | 0.382 | 0.527 | 0.693 | 0.41
2 | C[C@@H]1COCCN1c1cc(C2([S@](C)(=N)=O)CC2)nc(-c2ccnc3[nH]ccc23)n1 [AZD6738] + O=C(c1cc(Cc2n[nH]c(=O)c3ccccc23)ccc1F)N1CCN(C(=O)C2CC2)CC1 [Olaparib] (first compound max 10 µM, 7x7, partner max 10 µM) | 0.148 | 0.319 | 0.476 | 0.349 | 0.868 | 0.847 | 0.965 | 0.824 | 0.446 | 0.261 | 0.864 | 0.631 | 0.76 | 0.585 | 0.929 | 0.726 | 0.598 | 0.685 | 0.661 | 0.498
3 | NC1(C(=O)N[C@@H](CCO)c2ccc(Cl)cc2)CCN(c2ncnc3[nH]ccc23)CC1 [Capivasertib] + Cn1cnc2c(F)c(Nc3ccc(Br)cc3Cl)c(C(=O)NOCCO)cc21 [Selumetinib] (first compound max 10 µM, 7x7, partner max 10 µM) | 0.301 | 0.523 | 0.351 | 0.388 | 0.379 | 0.606 | 0.686 | 0.982 | 0.767 | 0.171 | 0.672 | 0.625 | 0.391 | 0.56 | 0.682 | 0.395 | 0.407 | 0.464 | 0.785 | 0.197
4 | NC1(C(=O)N[C@@H](CCO)c2ccc(Cl)cc2)CCN(c2ncnc3[nH]ccc23)CC1 [Capivasertib] + COc1nnc2ccc(N3CCC(c4ccc(OCCN5CCN(C)C(=O)[C@H]5C)cc4)CC3)nn12 [AZD5153] (first compound max 10 µM, 7x7, partner max 1 µM) | 0.164 | 0.753 | 0.379 | 0.0453 | 0.717 | 0.733 | 0.992 | 0.944 | 0.572 | 0.571 | 0.747 | 0.649 | 0.478 | 0.453 | 0.828 | 0.627 | 0.446 | 0.358 | 0.66 | 0.497
5 | COc1nnc2ccc(N3CCC(c4ccc(OCCN5CCN(C)C(=O)[C@H]5C)cc4)CC3)nn12 [AZD5153] + C=CCn1c(=O)c2cnc(Nc3ccc(N4CCN(C)CC4)cc3)nc2n1-c1cccc(C(C)(C)O)n1 [AZD1775] (first compound max 1 µM, partner max 1 µM) | 0.51 | 0.757 | 0.436 | 0.227 | 0.764 | 0.992 | 0.983 | 0.862 | 0.81 | 0.718 | 0.941 | 0.529 | 0.924 | 0.691 | 0.872 | 0.944 | 0.622 | 0.558 | 0.737 | 0.312
6 | CC1(C)CCC(CN2CCN(c3ccc(C(=O)NS(=O)(=O)c4ccc(NCC5CCOCC5)c([N+](=O)[O-])c4)c(Oc4cnc5[nH]ccc5c4)c3)CC2)=C(c2ccc(Cl)cc2)C1 [Venetoclax] + COc1cc(Nc2ncc3c(n2)-c2ccc(Cl)cc2C(c2c(F)cccc2OC)=NC3)ccc1C(=O)O [Alisertib] (first compound max 1 µM, 7x7, partner max 10 µM) | 0.809 | 0.198 | 0.343 | 0.246 | 0.795 | 0.554 | 0.741 | 0.514 | 0.347 | 0.339 | 0.89 | 0.329 | 0.827 | 0.276 | 0.932 | 0.778 | 0.268 | 0.257 | 0.632 | 0.349
7 | CCN(CCO)CCCOc1ccc2c(Nc3cc(CC(=O)Nc4cccc(F)c4)[nH]n3)ncnc2c1 [AZD2811] + C=CCn1c(=O)c2cnc(Nc3ccc(N4CCN(C)CC4)cc3)nc2n1-c1cccc(C(C)(C)O)n1 [AZD1775] (first compound max 1 µM, partner max 1 µM) | 0.111 | 0.604 | 0.343 | 0.235 | 0.734 | 0.94 | 0.798 | 0.803 | 0.376 | 0.158 | 0.922 | 0.234 | 0.913 | 0.278 | 0.817 | 0.893 | 0.488 | 0.696 | 0.427 | 0.355
8 | CC1(C)CCC(CN2CCN(c3ccc(C(=O)NS(=O)(=O)c4ccc(NCC5CCOCC5)c([N+](=O)[O-])c4)c(Oc4cnc5[nH]ccc5c4)c3)CC2)=C(c2ccc(Cl)cc2)C1 [Venetoclax] + Cn1cnc2c(F)c(Nc3ccc(Br)cc3Cl)c(C(=O)NOCCO)cc21 [Selumetinib] (first compound max 1 µM, 7x7, partner max 3 µM) | 0.367 | 0.137 | 0.255 | 0.111 | 0.0867 | 0.178 | 0.277 | 0.506 | 0.728 | 0.132 | 0.319 | 0.368 | 0.632 | 0.19 | 0.887 | 0.264 | 0.14 | 0.114 | 0.568 | 0.234
9 | Cn1cnc2c(F)c(Nc3ccc(Br)cc3Cl)c(C(=O)NOCCO)cc21 [Selumetinib] + C=CCn1c(=O)c2cnc(Nc3ccc(N4CCN(C)CC4)cc3)nc2n1-c1cccc(C(C)(C)O)n1 [AZD1775] (first compound max 10 µM, partner max 1 µM) | 0.247 | 0.678 | 0.41 | 0.311 | 0.726 | 0.944 | 0.875 | 0.857 | 0.792 | 0.211 | 0.944 | 0.406 | 0.936 | 0.335 | 0.806 | 0.85 | 0.6 | 0.48 | 0.64 | 0.315
10 | COc1nnc2ccc(N3CCC(c4ccc(OCCN5CCN(C)C(=O)[C@H]5C)cc4)CC3)nn12 [AZD5153] + CC1(C)CCC(CN2CCN(c3ccc(C(=O)NS(=O)(=O)c4ccc(NCC5CCOCC5)c([N+](=O)[O-])c4)c(Oc4cnc5[nH]ccc5c4)c3)CC2)=C(c2ccc(Cl)cc2)C1 [Venetoclax] (first compound max 1 µM, 7x7, partner max 1 µM) | 0.887 | 0.648 | 0.381 | 0.227 | 0.682 | 0.655 | 0.679 | 0.754 | 0.513 | 0.621 | 0.638 | 0.486 | 0.673 | 0.368 | 0.334 | 0.477 | 0.311 | 0.401 | 0.67 | 0.485
11 | CN(C)CCCOc1ccc(-c2ccc3ncc4c(c3c2)n(C2CCOCC2)c(=O)n4C)cn1 [AZD0156] + C[C@@H]1COCCN1C2=NC(=NC(=C2)C3(CC3)[S@](=N)(=O)C)C4=C5C=CNC5=NC=C4 [AZD6738] (first compound max 1 µM, 7x7, partner max 10 µM) | 0.134 | 0.414 | 0.435 | 0.23 | 0.638 | 0.856 | 0.898 | 0.903 | 0.514 | 0.132 | 0.923 | 0.524 | 0.973 | 0.533 | 0.935 | 0.712 | 0.799 | 0.821 | 0.703 | 0.391
12 | CC(=O)c1c(C)c2cnc(Nc3ccc(N4CCNCC4)cn3)nc2n(C2CCCC2)c1=O [Palbociclib] + CC1(C)CCC(CN2CCN(c3ccc(C(=O)NS(=O)(=O)c4ccc(NCC5CCOCC5)c([N+](=O)[O-])c4)c(Oc4cnc5[nH]ccc5c4)c3)CC2)=C(c2ccc(Cl)cc2)C1 [Venetoclax] (first compound max 10 µM, 7x7, partner max 1 µM) | 0.327 | 0.112 | 0.224 | 0.164 | 0.401 | 0.486 | 0.412 | 0.243 | 0.478 | 0.0427 | 0.651 | 0.382 | 0.42 | 0.194 | 0.409 | 0.231 | 0.107 | 0.119 | 0.424 | 0.621
